According to article PMC12136037, “Type II kinase inhibitors that target Parkinson’s disease–associated LRRK2” (Science Advances, 2025):

Assays:
[1] = biological target: T1, ~100 representative kinases (Homo sapiens, UniProt Q9BVS4); experiment: DSF 100 kinase selectivity screen; assay type: binding; details: Protein RIOK2; DSF; average of three replicates;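 also: compound tested at 20 µM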
T1 construct: Recombinant protein kinase domains with a concentration of 2 μM
How it was run: (§1)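 Each kinase domain, at 2 μM, is mixed with 20 μM test compound and SYPRO Orange in Hepes (20 mM, pH 7.5) with 500 mM NaCl. Temperature is then raised at 3°C/min and fluorescence-monitored unfolding yields the melting temperature change, ΔTm in degrees Celsius.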

[2] = biological target: T2, ~100 representative kinases (Homo sapiens, UniProt Q9UK32); experiment: DSF 100 kinase selectivity screen; assay type: binding; details: Protein RPS6KA6; DSF; average of three replicates;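 also: compound tested at 20 µM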
T2 construct: Recombinant protein kinase domains with a concentration of 2 μM
T2 sequence (Q9UK32 whole entry, the tested form may be a part): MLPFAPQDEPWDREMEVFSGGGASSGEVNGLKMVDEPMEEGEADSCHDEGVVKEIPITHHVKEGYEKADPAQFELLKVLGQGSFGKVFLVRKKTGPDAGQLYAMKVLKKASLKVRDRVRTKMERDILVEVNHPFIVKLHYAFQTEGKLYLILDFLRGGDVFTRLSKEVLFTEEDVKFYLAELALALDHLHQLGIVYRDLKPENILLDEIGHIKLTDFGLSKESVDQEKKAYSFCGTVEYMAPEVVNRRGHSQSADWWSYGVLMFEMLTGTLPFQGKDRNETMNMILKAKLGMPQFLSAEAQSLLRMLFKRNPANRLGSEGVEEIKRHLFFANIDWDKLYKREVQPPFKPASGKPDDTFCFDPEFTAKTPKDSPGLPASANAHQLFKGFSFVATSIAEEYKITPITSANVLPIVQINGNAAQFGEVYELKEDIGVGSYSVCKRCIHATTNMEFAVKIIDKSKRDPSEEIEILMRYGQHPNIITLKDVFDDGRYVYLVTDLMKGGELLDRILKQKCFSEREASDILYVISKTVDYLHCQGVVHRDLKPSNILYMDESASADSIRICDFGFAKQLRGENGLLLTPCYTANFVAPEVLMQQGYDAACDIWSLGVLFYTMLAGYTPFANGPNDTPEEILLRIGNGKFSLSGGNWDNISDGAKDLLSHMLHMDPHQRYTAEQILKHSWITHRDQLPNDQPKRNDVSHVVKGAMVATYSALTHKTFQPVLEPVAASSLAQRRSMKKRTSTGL
How it was run: as §1

T1 sequence (Q9BVS4 whole entry, the tested form may be a part): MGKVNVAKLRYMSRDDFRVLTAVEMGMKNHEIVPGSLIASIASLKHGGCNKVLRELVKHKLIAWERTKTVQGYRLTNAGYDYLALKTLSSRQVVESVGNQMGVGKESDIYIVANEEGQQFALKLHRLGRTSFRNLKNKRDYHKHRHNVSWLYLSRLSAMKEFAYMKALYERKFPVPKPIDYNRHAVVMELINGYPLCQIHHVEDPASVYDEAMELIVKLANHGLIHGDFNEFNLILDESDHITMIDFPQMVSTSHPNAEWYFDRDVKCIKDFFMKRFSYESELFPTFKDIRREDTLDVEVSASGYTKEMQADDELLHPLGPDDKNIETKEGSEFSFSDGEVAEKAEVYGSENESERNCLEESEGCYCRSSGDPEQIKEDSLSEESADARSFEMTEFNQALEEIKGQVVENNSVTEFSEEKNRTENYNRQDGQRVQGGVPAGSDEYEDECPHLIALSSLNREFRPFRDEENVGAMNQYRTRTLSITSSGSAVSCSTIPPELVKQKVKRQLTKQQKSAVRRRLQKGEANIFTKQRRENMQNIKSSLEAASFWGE

dTm [1]: 1.81 K
dTm [2]: -0.02 K
Structure (SMILES): Cc1ccc(C(=O)Nc2ccc(CN3CCN(C)CC3)c(C(F)(F)F)c2)cc1C#Cc1c[nH]c2ncnc(N3CCOCC3)c12 [Compound 1]
